This note sets out measurements from PMC9658668, “Phytochemical Variability, In Vitro and In Vivo Biological Investigations, and In Silico Antibacterial Mechanisms of Mentha piperita Essential Oils Collected from Two Different Regions in Morocco” (Foods, 2022).

Each structure is given as a SMILES string. Marks after values point to notes of the source that are not given here. A value given as a limit tells only on which side of the number the result lay.

One assay relates to E. coli ATCC 25922. Kind of assay: MIC and MBC determination. The arrangement: MBC: unit not given beside the values. The format is cell-based, Escherichia coli. The method, then: (§1) The antibacterial activity of M. piperita essential oils (MPEO) from Ouezzane and Azrou regions (Morocco) was evaluated against the following six bacterial strains: three gram-positive bacteria (Staphylococcus aureus ATCC 29213, Listeria monocytogenes ATCC 13932, Bacillus subtilis ATCC 6633), and three gram-negative bacteria (Escherichia coli ATCC 25922, Salmonella typhimurium ATCC 700408, and Pseudomonas aeruginosa ATCC 27853).
(§2) An inoculum of the frozen stock (−20 °C) was utilized to inoculate Mueller–Hinton Agar (Biokar, Beauvais, France), where it was incubated for 24 h at 37 °C to revive the bacteria. Then, an inoculum was removed from a bacterial colony and diluted to 0.5 McFarland in sterile salt water (0.9% NaCl) before being transferred to a sterile tube where the weighty particles were left to settle for 5 min. The top homogeneous solutions were transferred to a new, sterile tube and their concentration was adjusted to the 0.5 McFarland turbidity standard to obtain an inoculum of about […], which was used in the antibacterial testing
(§3) The minimum inhibitory concentration (MIC) is the lowest essential oil concentration that could prevent the growth of bacteria. […]
(§4) The MBC was determined to be the minimum concentration at which no growth occurred in the medium. […]

Assay [1] deals with S. typhimurium ATCC 700408. In words: MIC and MBC determination. The assay is classed as cell-based, Salmonella typhimurium. The method, then:
as §1, §2
(§5) The minimum inhibitory concentration (MIC) is the lowest essential oil concentration that could prevent the growth of bacteria. The determination of MIC values against bacteria was conducted according to the previously reported procedure with a minor change, using Mueller–Hinton broth (Biokar, Beauvais, France) and bacteria. Twenty-four h of incubation was done at 37 °C. The antibiotic chloramphenicol served as a positive control. In sterile microtubes, two-fold serial dilutions of EO concentrations ranging from 4% to 0.0625 % (v/v) were made in Mueller–Hinton broth containing 5% of DMSO. […] Then, 5 µL of the previously produced bacterial suspension was added to each tube. Each suspension was homogenized and incubated for 24 h at 37 °C. As a first negative control, microtubes containing liquid medium and EO were used. […]
as §4

The test system of another assay is P. aeruginosa ATCC 27853. In words: MIC and MBC determination. The format is cell-based, Pseudomonas aeruginosa. The arrangement: unit not given beside the values. The note with it: chloramphenicol, unit not given. As to the method:
as §1, §2, §3, §4

The subject of a further assay is S. aureus ATCC 29213. In words: MIC and MBC determination. The assay is classed as cell-based, Staphylococcus aureus. The arrangement: MBC: unit not given beside the values. As to the method:
as §1, §2, §3, §4

Assay [2] has as its system L. monocytogenes ATCC 13932. In words: MIC and MBC determination. The arrangement: MIC / MBC: unit not given beside the values. The assay is classed as cell-based, Listeria monocytogenes. The method, then: as §1, §2, §5, §4
For another assay, the system named is B. subtilis ATCC 6633. In words: MIC and MBC determination. The assay is classed as cell-based, Bacillus subtilis. Details: MIC / MBC: unit not given beside the values. The method, then:
as §1, §2, §5, §4

In assay [3] the test system is carrageenan-induced rat paw edema. In words: Carrageenan-induced paw edema. The following applies: EO 100 mg/kg oral, indomethacin 10 mg/kg. The format is in vivo, Wistar rats. The method, then:
The studies were carried out on adult rats of the Wistar strain, obtained from the central animal facility of the Faculty of Medicine and Pharmacy of Rabat. These rats weighed between 200 and 250 g. The temperature was maintained at 20 °C with a lighting cycle of 12 h of light and 12 h of darkness. The study was approved by the Ethics Committee from Mohammed V University, (Protocol code # UA-2021-09; date of approval 27 May 2021).
The anti-inflammatory effects were studied using the carrageenan-induced paw edema method previously described by Musa G. Rege et al.. Briefly, Wistar rats (160 to 200 g) were randomly divided into […] (n = 6). The first two groups were orally administered with 100 mg/kg of M. pepirita EO. The third group was a negative control which received distilled water, while the last group was considered a positive control and received indomethacin (10 mg/kg) as the reference anti-inflammatory drug. After 60 min, all rats were injected subcutaneously with carrageenan solution (0.05 mL of 1% carrageenan suspended in 0.9% NaCl) into the subplantar region of the left hind paw. […] The anti-inflammatory effect is calculated using the following equation. In each group, the anti-inflammatory effect is measured by the percentage of edema inhibition (% INH) in paw volume, as follows: %INH = (mean [VL − VR] Control − mean [VL − VR] Treated)/[VL − VR] Control × 100 • With: VL: volume of the left paw. • VR: volume of the right paw.

The nature of assay [4]: DPPH radical-scavenging activity. As to the method:
The essential oil of Mentha piperita was performed using a 1,1-diphenyl-2-picryl hydrazyl (DPPH) technique, as reported in Brand-Williams et al. with some changes. Briefly, a 2.5 mL aliquot of DPPH solution was mixed with 1.25 mL of the essential oil at a concentration of 1 mg/mL, and then the obtained solution was incubated at 25 °C for 30 min. The absorbance was measured at 517 nm.

The nature of assay [5]: Trolox equivalent antioxidant capacity (ABTS) assay. As to the method:
The assay was carried out using the ABTS^+ method as described by Re et al. with some modifications. Briefly, the ABTS radical cation was generated by mixing 10 mL of 2 mM ABTS with 100 µL of potassium persulfate (2.45 mM). After the reaction mixture is kept in the dark at room temperature for 16 h, methanol is used to dilute the ABTS solution to obtain an absorbance of 0.700 at 734 nm. Two hundred µL of the essential (1 mg/mL) was mixed with 2 mL of diluted ABTS solution. The mixture was allowed to react for 1 min, and the absorbance was measured at 734 nm. Trolox is used as a reference standard. The results were expressed as an IC50 value (µg/mL).

Another assay in a line: H2O2-scavenging activity. The method, then:
The H2O2 radical scavenging activity of extracts was determined according to the method described by Ruch et al.. Briefly, 40 mM of H2O2 solution was prepared in phosphate buffer (pH 7.4). A total of 1 mL of M. piperita HE at a concentration of 1 mg/mL was added to 0.6 mL of H2O2 solution. The mixture was incubated at 25 °C for 10 min, and the absorbance of H2O2 was determined at 230 nm against a blank solution containing phosphate buffer without H2O2. The positive control used is Ascorbic acid. The H2O2 trapping capacity was expressed as an IC50 value (µg/mL).

Setting [6] is: chloramphenicol, unit not given.

For `O=C(N[C@H](CO)[C@H](O)c1ccc([N+](=O)[O-])cc1)C(Cl)Cl` [Chloramphenicol], the MBC/MIC (against E. coli ATCC 25922; in assay [1]; against S. aureus ATCC 29213; in [2]; in the assay with B. subtilis ATCC 6633) was 1.0 each time. For the same compound, the MBC is 8.0 in the assay on E. coli ATCC 25922 (setting [6]); 64.0 in assay [1] (setting [6]); above 64.0 with P. aeruginosa ATCC 27853; 4.0 with S. aureus ATCC 29213 (setting [6]); 2.0 in assay [2] (setting [6]); 32.0 in the assay with B. subtilis ATCC 6633 (setting [6]). The MIC is listed as 64.0 in assay [1] (setting [6]), above 64.0 in the assay on P. aeruginosa ATCC 27853, 2.0 in assay [2] (setting [6]) and 32.0 in the assay on B. subtilis ATCC 6633 (setting [6]).

Take `COc1ccc2c(c1)c(CC(=O)O)c(C)n2C(=O)c1ccc(Cl)cc1` [Indomethacin]: the “Mean Edema Volume (Left-Right Paw)” value worked out at 0.146 ± 0.04 mL in assay [3] (1 h 30 min), 0.178 ± 0.01 mL in assay [3] (3 h) and 0.191 ± 0.01 mL in [3] (6 h). Besides, the “Percentage Inhibition of Edema” value in [3] (1 h 30 min) came out at 69.77%; in assay [3] (3 h), 70.23%; in assay [3] (6 h) it was 59.61%.

In the case of `O=C1O[C@H]([C@@H](O)CO)C(O)=C1O` [Ascorbic acid], in [4], the “DPPH IC50” value is given as 09.03 ± 0.02 ^a µg/mL. In addition, in [5], the “ABTS Test IC50” value is listed as 74.81 ± 0.01 ^a µg/mL. In addition, in the assay “H2O2-scavenging activity”, the “H2O2 IC50” value is 3.23 ± 0.08 ^a µg/mL.
